Data as given in patent US8063062B2, “Compounds with a combination of cannabinoid-CB1 antagonism and acetylcholinesterase inhibition” (Solvay Pharmaceuticals B.V., priority 2006, dated 2011).
Like-named read-outs stand apart in the source and are kept apart here.

How the values were obtained:
acetylcholinesterase [1] = biological target: T1, acetylcholinesterase (Homo sapiens, UniProt P22303); assay: biochemical
[2] = biological target: human cannabinoid CB1 receptor (Homo sapiens, UniProt P21554); assay: biochemical
Procedure: After incubation of a freshly prepared cell membrane preparation with the [^3H]-ligand, with or without addition of compounds of the invention, separation of bound and free ligand was performed by filtration over glass fiber filters. Radioactivity on the filter was measured by liquid scintillation counting.

acetylcholinesterase [3] = biological target: T1, acetylcholinesterase

T1 sequence (P22303 32-614): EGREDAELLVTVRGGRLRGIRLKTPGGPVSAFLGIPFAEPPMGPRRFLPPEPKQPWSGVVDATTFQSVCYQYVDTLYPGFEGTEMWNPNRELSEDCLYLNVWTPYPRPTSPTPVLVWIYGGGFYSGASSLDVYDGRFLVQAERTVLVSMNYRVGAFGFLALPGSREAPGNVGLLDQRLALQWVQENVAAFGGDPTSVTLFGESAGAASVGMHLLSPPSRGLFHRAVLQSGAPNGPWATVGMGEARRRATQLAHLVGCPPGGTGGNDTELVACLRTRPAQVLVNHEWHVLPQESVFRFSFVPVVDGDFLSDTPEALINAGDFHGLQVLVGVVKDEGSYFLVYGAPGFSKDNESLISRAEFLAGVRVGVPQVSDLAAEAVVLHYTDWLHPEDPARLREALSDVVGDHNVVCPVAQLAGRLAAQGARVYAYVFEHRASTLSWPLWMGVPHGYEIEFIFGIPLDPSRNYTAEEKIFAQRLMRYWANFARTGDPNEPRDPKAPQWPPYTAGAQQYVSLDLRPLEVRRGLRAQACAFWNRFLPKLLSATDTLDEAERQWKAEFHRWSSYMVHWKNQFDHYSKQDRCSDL
Sequence of human cannabinoid CB1 receptor (P21554 whole entry): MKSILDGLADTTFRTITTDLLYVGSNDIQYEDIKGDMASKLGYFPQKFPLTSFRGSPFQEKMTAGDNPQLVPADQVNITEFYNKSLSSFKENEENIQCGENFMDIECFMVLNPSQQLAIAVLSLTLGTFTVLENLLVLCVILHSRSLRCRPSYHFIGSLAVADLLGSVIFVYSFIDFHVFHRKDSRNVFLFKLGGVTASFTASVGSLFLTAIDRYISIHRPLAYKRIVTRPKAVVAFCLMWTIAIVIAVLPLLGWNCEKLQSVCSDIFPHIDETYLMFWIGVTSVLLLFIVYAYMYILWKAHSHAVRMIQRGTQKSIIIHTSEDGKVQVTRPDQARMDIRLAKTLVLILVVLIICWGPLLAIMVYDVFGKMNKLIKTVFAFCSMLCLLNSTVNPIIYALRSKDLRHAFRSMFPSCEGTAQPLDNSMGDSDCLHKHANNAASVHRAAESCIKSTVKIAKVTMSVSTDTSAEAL

Structure (SMILES)	IC50 (acetylcholinesterase [1]) [µM]	Ki [2] [µM]	IC50 (acetylcholinesterase [3]) [µM]
CN=C(NS(=O)(=O)c1ccc(Cl)cc1)N1C[C@H](c2ccccc2)C(c2ccc(Cl)cc2)=N1 [SLV319]	6.31	–	–
O=S(=O)(/N=C(/NCCCCNc1c2c(nc3ccccc13)CCCC2)N1CC(c2ccccc2)C(c2ccc(Cl)cc2)=N1)c1ccc(Cl)cc1 (stereo not shown) [compound 2, 4-chloro-N-{[3-(4-chlorophenyl)-4-phenyl-4,5-dihydro-1H-pyrazolyl]-[7-(1,2,3,4-tetrahydroacridin-9-yl-amino)butylamino]methylene}benzene sulfonamide]	–	0.0398	2.51
Cc1c(C(=O)NN2CCCCC2)nn(-c2ccc(Cl)cc2Cl)c1-c1ccc(Cl)cc1 [rimonabant]	–	–	25.1
